Tests used:
[1] = target: T1, Peroxisome proliferator-activated receptor alpha (Homo sapiens, UniProt Q07869); format: functional
T1 sequence (Q07869 whole entry): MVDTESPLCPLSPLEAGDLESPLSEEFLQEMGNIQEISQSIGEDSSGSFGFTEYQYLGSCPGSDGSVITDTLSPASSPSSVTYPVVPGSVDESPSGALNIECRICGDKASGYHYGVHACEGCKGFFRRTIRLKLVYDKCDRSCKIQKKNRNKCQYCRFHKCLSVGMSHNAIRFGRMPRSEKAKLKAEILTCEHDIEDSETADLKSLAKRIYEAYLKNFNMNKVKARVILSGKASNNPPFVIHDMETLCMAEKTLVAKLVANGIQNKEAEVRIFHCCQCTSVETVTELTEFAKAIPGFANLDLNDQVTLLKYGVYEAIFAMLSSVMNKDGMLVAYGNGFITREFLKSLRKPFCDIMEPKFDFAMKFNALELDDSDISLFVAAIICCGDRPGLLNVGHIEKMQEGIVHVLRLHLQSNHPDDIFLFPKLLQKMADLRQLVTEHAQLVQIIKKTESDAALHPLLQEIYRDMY

[2] = target: T1, Peroxisome proliferator-activated receptor alpha; format: functional; remark: listed apart in the source
[3] = target: T2, Nuclear receptor subfamily 1 group I member 3 (Homo sapiens, UniProt Q14994); format: functional
T2 sequence (Q14994 whole entry): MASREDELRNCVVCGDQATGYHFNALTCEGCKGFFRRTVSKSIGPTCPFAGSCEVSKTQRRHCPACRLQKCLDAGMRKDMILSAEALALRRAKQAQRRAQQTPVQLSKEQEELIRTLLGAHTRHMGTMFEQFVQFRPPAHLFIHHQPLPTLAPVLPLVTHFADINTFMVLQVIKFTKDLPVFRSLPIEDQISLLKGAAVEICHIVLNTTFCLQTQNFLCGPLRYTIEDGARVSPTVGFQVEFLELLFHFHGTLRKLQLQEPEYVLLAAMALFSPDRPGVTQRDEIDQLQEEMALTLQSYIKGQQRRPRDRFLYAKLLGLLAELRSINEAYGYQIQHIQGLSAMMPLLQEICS

[4] = target: 5-hydroxytryptamine receptor 5A (Homo sapiens, UniProt P47898)
[5] = target: 5-hydroxytryptamine receptor 2A (Homo sapiens, UniProt P28223)
[6] = target: T3, Retinoic acid receptor gamma (Homo sapiens, UniProt P13631); format: functional, cell-based
T3 sequence (P13631 whole entry): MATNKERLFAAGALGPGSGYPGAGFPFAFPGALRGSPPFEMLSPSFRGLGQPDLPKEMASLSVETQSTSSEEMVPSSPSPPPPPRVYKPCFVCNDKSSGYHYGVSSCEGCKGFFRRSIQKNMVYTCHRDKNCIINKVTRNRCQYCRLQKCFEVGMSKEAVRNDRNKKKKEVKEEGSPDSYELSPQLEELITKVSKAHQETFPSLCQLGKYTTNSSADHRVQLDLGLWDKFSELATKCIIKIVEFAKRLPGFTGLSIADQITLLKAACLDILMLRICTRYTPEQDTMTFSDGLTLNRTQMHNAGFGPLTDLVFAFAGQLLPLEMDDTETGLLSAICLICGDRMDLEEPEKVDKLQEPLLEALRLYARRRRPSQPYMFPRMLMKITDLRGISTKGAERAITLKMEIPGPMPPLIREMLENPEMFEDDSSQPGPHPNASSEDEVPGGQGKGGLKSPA

[7] = target: Rod cGMP-specific 3',5'-cyclic phosphodiesterase subunit alpha (Homo sapiens, UniProt P16499); format: functional
[8] = target: T4, Muscarinic acetylcholine receptor M4 (Homo sapiens, UniProt P08173)
T4 sequence (P08173 whole entry): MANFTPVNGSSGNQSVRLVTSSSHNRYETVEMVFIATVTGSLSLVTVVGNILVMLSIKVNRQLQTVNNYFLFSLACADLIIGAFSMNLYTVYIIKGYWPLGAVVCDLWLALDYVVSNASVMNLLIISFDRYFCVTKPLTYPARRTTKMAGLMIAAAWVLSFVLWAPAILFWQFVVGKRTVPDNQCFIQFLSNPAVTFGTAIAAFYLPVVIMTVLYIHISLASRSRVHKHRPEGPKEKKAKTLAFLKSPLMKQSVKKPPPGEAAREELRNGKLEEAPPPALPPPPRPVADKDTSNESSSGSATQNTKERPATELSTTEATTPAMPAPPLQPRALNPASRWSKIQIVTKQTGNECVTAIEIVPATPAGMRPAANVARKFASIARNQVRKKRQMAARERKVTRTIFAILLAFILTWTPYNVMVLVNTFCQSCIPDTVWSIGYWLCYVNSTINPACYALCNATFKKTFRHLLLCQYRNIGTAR

[9] = target: T5, Substance-K receptor (Homo sapiens, UniProt P21452)
T5 sequence (P21452 whole entry): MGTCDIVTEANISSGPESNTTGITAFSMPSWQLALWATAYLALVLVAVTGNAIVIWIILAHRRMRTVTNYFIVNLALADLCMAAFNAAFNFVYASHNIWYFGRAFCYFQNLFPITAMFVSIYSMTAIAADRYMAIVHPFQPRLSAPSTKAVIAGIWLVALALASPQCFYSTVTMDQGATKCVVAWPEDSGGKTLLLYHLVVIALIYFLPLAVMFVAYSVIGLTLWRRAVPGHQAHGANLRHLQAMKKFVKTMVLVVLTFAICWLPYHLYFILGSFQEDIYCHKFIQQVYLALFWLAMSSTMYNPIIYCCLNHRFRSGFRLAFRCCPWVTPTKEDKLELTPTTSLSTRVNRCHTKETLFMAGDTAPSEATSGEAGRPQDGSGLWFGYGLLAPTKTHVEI

[10] = target: D(1B) dopamine receptor (Homo sapiens, UniProt P21918)
[11] = target: Voltage-dependent L-type calcium channel subunit alpha-1C (Homo sapiens, UniProt Q13936); format: functional, cell-based
[12] = target: D(1A) dopamine receptor (Homo sapiens, UniProt P21728)
Further: assay procedure not described here.

Rod cGMP-specific 3',5'-cyclic phosphodiesterase subunit alpha, sequence (P16499 whole entry): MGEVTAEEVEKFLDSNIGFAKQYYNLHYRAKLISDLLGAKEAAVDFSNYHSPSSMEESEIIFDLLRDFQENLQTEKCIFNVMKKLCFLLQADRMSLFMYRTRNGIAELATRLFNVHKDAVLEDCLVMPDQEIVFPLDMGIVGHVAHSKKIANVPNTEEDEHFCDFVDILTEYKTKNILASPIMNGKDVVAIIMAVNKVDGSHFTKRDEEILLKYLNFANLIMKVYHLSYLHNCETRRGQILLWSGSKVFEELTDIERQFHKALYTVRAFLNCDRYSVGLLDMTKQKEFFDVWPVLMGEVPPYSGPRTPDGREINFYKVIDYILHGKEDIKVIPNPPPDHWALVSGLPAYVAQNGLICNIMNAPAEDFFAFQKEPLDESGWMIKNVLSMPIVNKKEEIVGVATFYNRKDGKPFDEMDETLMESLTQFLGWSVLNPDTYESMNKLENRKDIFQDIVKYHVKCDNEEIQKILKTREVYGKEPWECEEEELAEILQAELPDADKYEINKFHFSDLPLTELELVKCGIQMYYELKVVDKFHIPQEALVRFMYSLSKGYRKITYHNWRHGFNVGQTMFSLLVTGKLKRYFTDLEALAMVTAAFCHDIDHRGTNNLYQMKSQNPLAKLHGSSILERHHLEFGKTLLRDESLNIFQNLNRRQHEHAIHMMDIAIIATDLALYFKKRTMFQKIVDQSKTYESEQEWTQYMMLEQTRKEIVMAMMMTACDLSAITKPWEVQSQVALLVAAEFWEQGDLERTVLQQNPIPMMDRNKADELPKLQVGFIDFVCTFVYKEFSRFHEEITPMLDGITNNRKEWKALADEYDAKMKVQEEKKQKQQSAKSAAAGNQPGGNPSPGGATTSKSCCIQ
5-hydroxytryptamine receptor 5A, sequence (P47898 whole entry): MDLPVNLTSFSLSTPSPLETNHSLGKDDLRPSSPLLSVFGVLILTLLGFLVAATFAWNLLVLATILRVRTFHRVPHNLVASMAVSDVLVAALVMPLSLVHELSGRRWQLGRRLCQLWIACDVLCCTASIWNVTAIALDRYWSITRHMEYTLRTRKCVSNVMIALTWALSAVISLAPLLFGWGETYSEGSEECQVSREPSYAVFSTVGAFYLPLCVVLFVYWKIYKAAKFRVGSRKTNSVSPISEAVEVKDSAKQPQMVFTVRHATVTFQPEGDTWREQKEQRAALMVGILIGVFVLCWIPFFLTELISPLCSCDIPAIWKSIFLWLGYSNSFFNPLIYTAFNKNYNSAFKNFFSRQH
D(1B) dopamine receptor, sequence (P21918 whole entry): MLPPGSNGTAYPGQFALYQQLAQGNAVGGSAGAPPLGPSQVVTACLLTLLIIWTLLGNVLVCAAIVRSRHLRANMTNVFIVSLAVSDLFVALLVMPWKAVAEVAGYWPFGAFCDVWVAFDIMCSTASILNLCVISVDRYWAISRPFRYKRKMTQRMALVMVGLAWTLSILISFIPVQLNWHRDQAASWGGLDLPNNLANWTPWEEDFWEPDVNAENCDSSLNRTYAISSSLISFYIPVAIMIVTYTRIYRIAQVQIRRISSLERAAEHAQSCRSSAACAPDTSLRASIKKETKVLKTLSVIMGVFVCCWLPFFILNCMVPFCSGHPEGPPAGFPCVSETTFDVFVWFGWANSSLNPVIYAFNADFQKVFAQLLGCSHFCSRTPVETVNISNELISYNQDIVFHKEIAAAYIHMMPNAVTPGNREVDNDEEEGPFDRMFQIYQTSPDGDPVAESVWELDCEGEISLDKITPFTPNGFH
Voltage-dependent L-type calcium channel subunit alpha-1C, sequence (Q13936 whole entry): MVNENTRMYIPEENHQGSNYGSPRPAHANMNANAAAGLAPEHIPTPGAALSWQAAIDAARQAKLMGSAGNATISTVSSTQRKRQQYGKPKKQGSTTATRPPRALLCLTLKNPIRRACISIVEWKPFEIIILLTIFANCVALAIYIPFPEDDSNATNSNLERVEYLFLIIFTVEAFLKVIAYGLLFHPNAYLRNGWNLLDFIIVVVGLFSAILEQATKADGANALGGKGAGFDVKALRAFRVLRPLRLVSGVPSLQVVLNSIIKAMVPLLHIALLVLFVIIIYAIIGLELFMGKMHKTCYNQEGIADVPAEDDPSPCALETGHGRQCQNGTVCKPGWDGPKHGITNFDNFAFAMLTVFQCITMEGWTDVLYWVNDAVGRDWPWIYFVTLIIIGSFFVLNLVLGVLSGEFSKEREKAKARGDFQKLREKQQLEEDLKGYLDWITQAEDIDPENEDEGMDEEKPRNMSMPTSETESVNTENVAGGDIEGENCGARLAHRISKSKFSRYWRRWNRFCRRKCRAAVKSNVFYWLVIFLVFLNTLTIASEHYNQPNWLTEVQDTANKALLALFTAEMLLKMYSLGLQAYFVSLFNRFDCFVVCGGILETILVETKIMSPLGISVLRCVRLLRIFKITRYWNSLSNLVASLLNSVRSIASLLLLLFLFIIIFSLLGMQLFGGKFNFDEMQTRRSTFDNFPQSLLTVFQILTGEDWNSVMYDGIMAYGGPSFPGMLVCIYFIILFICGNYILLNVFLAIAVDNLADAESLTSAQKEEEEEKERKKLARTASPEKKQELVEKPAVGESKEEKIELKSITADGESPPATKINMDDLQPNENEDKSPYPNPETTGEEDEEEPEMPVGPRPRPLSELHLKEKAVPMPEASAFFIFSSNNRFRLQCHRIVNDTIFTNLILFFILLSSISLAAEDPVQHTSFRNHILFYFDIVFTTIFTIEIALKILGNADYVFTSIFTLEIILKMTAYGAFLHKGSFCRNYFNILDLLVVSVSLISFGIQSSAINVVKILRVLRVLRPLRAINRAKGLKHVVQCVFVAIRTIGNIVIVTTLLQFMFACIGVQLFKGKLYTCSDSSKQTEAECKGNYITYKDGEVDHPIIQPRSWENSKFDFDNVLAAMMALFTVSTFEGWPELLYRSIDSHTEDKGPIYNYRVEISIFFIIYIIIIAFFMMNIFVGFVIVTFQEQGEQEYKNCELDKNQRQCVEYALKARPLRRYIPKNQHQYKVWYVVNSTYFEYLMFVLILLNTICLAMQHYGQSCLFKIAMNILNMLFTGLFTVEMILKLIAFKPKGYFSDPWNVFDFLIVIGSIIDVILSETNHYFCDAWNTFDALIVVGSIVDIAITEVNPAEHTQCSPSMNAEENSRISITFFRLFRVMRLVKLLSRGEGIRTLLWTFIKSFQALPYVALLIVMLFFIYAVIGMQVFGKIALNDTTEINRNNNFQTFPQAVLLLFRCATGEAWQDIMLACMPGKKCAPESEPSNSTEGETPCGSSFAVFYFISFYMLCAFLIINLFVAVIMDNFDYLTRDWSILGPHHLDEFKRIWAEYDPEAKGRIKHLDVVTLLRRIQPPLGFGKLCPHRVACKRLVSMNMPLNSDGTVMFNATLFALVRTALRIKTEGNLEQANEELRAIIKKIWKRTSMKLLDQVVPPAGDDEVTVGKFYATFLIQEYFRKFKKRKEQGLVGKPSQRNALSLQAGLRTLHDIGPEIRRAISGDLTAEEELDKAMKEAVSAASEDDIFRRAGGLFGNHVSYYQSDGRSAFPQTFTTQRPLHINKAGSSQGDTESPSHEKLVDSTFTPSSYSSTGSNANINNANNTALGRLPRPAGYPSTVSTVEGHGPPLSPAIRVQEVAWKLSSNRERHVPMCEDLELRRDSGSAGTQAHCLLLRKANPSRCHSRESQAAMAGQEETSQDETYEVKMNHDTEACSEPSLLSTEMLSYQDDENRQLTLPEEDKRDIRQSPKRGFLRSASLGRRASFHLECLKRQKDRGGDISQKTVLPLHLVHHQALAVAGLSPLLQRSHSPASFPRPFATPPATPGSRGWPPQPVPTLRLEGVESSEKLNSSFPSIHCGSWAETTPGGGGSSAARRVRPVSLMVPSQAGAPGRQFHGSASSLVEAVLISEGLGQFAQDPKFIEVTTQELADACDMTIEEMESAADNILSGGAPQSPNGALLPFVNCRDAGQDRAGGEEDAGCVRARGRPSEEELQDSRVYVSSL
5-hydroxytryptamine receptor 2A, sequence (P28223 whole entry): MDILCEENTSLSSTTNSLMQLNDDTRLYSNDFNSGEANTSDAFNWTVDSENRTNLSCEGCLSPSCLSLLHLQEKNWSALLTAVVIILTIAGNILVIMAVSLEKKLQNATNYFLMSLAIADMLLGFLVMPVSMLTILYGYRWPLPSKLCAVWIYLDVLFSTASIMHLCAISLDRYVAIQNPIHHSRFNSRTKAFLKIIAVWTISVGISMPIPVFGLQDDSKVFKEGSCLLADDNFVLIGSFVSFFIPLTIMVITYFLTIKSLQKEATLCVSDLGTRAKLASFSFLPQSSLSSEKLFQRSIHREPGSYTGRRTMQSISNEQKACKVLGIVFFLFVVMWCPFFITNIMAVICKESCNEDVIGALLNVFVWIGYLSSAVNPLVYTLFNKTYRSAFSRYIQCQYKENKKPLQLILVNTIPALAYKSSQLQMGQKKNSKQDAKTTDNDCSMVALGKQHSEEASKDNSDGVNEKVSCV
D(1A) dopamine receptor, sequence (P21728 whole entry): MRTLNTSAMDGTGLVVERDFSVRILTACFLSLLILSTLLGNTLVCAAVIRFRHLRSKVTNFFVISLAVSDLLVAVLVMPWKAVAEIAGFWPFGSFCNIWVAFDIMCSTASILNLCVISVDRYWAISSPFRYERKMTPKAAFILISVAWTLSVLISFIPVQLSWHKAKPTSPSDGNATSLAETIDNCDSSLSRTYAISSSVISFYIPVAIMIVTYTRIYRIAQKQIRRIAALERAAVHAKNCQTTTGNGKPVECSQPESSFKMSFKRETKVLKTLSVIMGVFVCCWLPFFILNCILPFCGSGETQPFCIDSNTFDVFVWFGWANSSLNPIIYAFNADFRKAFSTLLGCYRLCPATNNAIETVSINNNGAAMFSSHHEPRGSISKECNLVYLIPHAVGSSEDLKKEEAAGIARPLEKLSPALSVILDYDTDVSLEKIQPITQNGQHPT

Question: `Cc1c(C(=O)NN2CCCCC2)nn(-c2ccc(Cl)cc2Cl)c1-c1ccc(Cl)cc1` [RIMONABANT] was tested. Which AC50 [1] did it give?
Answer: > 30 µM

Question: What about the AC50 [2] of the same compound?
Answer: > 30 µM

Question: And the AC50 [3]?
Answer: 6.6 µM

Question: What about the AC50 [4] of the same compound?
Answer: > 10 µM

Question: What about the AC50 [5] of the same compound?
Answer: > 10 µM

Question: And the AC50 [6]?
Answer: > 30 µM

Question: And the AC50 [7]?
Answer: > 10 µM

Question: And the AC50 [8]?
Answer: > 10 µM

Question: What about the AC50 [9] of the same compound?
Answer: > 10 µM

Question: And the AC50 [10]?
Answer: > 10 µM

Question: How did the AC50 [11] turn out when `COc1ccccc1OCC(O)CN1CCN(CC(=O)Nc2c(C)cccc2C)CC1` (stereo unspecified) [RANOLAZINE] was run?
Answer: > 50 µM

Question: Which AC50 [11] does the source give for `CCCCCCOc1nsnc1C1=CCCN(C)C1` [XANOMELINE] here?
Answer: 10 µM

Question: What does the source list for `CS(=O)(=O)c1ccc(C2=C(c3ccccc3)C(=O)OC2)cc1` [ROFECOXIB]?
Answer: AC50 [4]: > 10 µM; AC50 [7]: > 10 µM; AC50 [8]: > 10 µM; AC50 [9]: > 10 µM; AC50 [10]: > 10 µM

Question: With `Cn1nnc2c(C(N)=O)ncn2c1=O` [TEMOZOLOMIDE] as the compound, how does the AC50 [5] read?
Answer: > 10 µM

Question: How did the AC50 [12] turn out when `CCc1oc2ccccc2c1C(=O)c1cc(I)c(O)c(I)c1` [BENZIODARONE] was run?
Answer: > 30 µM

Question: For `O=C1Nc2ccc(Cl)cc2[C@@](C#CC2CC2)(C(F)(F)F)O1` [EFAVIRENZ], which AC50 [5] is on record?
Answer: 3.79 µM

Question: `CC[C@H]1[C@@H](O)[C@@H]2[C@H](CC[C@]3(C)[C@@H]([C@H](C)CCC(=O)O)CC[C@@H]23)[C@@]2(C)CC[C@@H](O)C[C@@H]12` [OBETICHOLIC ACID] was tested. Which AC50 [11] did it give?
Answer: > 30 µM

Question: With `N[C@@H]1[C@H]2CN(c3nc4c(cc3F)c(=O)c(C(=O)O)cn4-c3ccc(F)cc3F)C[C@@H]12` [TROVAFLOXACIN] as the compound, how does the AC50 [3] read?
Answer: > 30 µM

Question: How did the AC50 [4] turn out when `NCC(CC(=O)O)c1ccc(Cl)cc1` (stereo unspecified) [BACLOFEN] was run?
Answer: > 10 µM

Question: What about the AC50 [7] of the same compound?
Answer: > 10 µM

Question: And the AC50 [8]?
Answer: > 10 µM

Question: What about the AC50 [9] of the same compound?
Answer: > 10 µM

Question: What about the AC50 [10] of the same compound?
Answer: > 10 µM

Question: `CC(=O)Nc1ccc(O)cc1` [ACETAMINOPHEN] was tested. Which AC50 [1] did it give?
Answer: > 30 µM

Question: And the AC50 [2]?
Answer: > 30 µM

Question: With `CC[C@H]1OC(=O)[C@H](C)[C@@H](O[C@H]2C[C@@](C)(OC)[C@@H](O)[C@H](C)O2)[C@H](C)[C@@H](O[C@@H]2O[C@H](C)C[C@H](N(C)C)[C@H]2O)[C@](C)(O)C[C@@H](C)CN(C)[C@H](C)[C@@H](O)[C@]1(C)O` [AZITHROMYCIN] as the compound, how does the AC50 [12] read?
Answer: > 30 µM

Question: What does the source list for `CCC1=C(C)CN(C(=O)NCCc2ccc(S(=O)(=O)NC(=O)N[C@H]3CC[C@H](C)CC3)cc2)C1=O` [GLIMEPIRIDE]?
Answer: AC50 [1]: > 30 µM; AC50 [2]: > 30 µM

Question: `CN1C(C(=O)Nc2ccccn2)=C(O)c2sc(Cl)cc2S1(=O)=O` [LORNOXICAM] was tested. Which AC50 [1] did it give?
Answer: > 30 µM

Question: What about the AC50 [2] of the same compound?
Answer: > 30 µM

Question: What about the AC50 [3] of the same compound?
Answer: > 30 µM

Question: What about the AC50 [5] of the same compound?
Answer: > 10 µM

Question: And the AC50 [6]?
Answer: > 30 µM

Question: Which results are given for `CCC(C)n1ncn(-c2ccc(N3CCN(c4ccc(OCC5COC(Cn6cncn6)(c6ccc(Cl)cc6Cl)O5)cc4)CC3)cc2)c1=O` (stereo unspecified) [ITRACONAZOLE]?
Answer: AC50 [1]: > 30 µM; AC50 [2]: > 30 µM; AC50 [3]: > 30 µM

Question: For `CO[C@H]1C[C@@H]2CC[C@@H](C)[C@@](O)(O2)C(=O)C(=O)N2CCCC[C@H]2C(=O)O[C@H]([C@H](C)C[C@@H]2CC[C@@H](O)[C@H](OC)C2)CC(=O)[C@H](C)/C=C(\C)[C@@H](O)[C@@H](OC)C(=O)[C@H](C)C[C@H](C)/C=C/C=C/C=C/1C` [SIROLIMUS], which AC50 [11] is on record?
Answer: > 50 µM

Question: `CN(C)CCC(c1ccc(Cl)cc1)c1ccccn1` (stereo unspecified) [CHLORPHENIRAMINE] was tested. Which AC50 [4] did it give?
Answer: > 10 µM

Question: What about the AC50 [7] of the same compound?
Answer: > 10 µM

Question: What about the AC50 [8] of the same compound?
Answer: > 10 µM

Question: What about the AC50 [9] of the same compound?
Answer: > 10 µM

Question: What about the AC50 [10] of the same compound?
Answer: > 10 µM

Question: Which results are given for `Cc1ccc(-c2cc(C(F)(F)F)nn2-c2ccc(S(N)(=O)=O)cc2)cc1` [CELECOXIB]?
Answer: AC50 [4]: > 10 µM; AC50 [7]: > 10 µM; AC50 [8]: > 10 µM; AC50 [9]: > 10 µM; AC50 [10]: > 10 µM

From ChEMBL document CHEMBL5291721, “A preclinical secondary pharmacology resource illuminates target-adverse drug reaction associations of marketed drugs” (Nat Commun, 2023)
